Results reported in PMC8379154, “UbiD domain dynamics underpins aromatic decarboxylation” (Nature Communications, 2021).

Key:
BsVdcCD = target: T1, BsVdcCD (Bacillus subtilis, UniProt P94405); experiment: overnight endpoint HPLC decarboxylation assay; type: biochemical; conditions: 5 mM substrate, 10 µM enzyme, prFMN, MnCl2, 100 mM KPi pH 6, anaerobic, 18 h
T1 construct: gene bsdC; VdcC and VdcD expressed in E. coli BL21(DE3), His tag on C-terminus of VdcC and/or N-terminus of VdcD; reconstituted in vitro with prFMN and Mn2+; with Phenolic acid decarboxylase subunit D
T1 sequence (P94405 1-473): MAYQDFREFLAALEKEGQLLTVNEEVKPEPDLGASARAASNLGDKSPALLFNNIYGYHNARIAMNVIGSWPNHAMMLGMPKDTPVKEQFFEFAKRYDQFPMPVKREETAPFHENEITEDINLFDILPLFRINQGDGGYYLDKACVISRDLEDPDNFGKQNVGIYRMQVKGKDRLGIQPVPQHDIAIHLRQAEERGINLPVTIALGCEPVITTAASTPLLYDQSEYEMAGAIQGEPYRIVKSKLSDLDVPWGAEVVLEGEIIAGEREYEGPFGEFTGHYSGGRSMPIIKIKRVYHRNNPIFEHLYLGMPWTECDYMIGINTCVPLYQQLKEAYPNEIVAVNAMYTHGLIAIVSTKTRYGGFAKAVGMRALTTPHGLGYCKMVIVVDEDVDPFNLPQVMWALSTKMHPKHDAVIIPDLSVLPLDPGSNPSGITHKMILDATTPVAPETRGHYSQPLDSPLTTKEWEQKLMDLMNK
T1 sequence (C0H3U9 1-75 partner): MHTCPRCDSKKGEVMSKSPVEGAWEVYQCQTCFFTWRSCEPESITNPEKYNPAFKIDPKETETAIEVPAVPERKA

[1] = target: Sedimentibacter hydroxybenzoicus VdcC, untagged (Sedimentibacter hydroxybenzoicus); experiment: crystal structure; apo complexes; F222 closed (7AE4), P1 open (7AE5), P212121 ShVdcCD^V59X (7AE7); molecular replacement with E. coli UbiD domains

Compound | overnight endpoint HPLC decarboxylation assay (BsVdcCD) | stoichiometry N [1]
COc1cc(C(=O)O)cc(OC)c1O [syringic acid] | syringic acid, for which product formation could only be detected in the presence of BsVdcCD | –
COc1cc(C(=O)O)ccc1O [vanillic acid] | the VdcC + VdcD reconstituted samples demonstrated considerable activity in contrast to isolated VdcC | –
Sedimentibacter hydroxybenzoicus VdcC, untagged (enzyme) | – | 6
